Measurements: patent US20020162794A1, “Anaerobic digestion” (priority 2001, published 2002)
Values joined by “and” are separate entries in the source; they are usually repeats but may differ in a detail not shown here. Equal entries are not always repeated.

Key:
[1] = tested on: mixed culture from municipal sludge digester; experiment: Volume and composition of gas generated in batch anaerobic digesters
Text: Volumetric gas production measurements
The gases generated by the biological activity within the reactors were collected in the overhanging plastic bags. The bags are connected to a tank containing colored water via a gas port used for sampling purpose to determine the gas composition. To measure the volume of gas in the bag, the water in the tank is drained out maintaining a suction pressure head difference of 2 cm between the atmospheric air and the gas inside the tank. The water is drained until there is a jump in the pressure head differences, which is actually noted by observing a jump in the difference in levels of manometer limbs. […] The difference between final water level and initial water level is measured by the scale on the side of the tank and is indicative of the volume of gas collected in each of the bags. The gas is returned to the bags by pumping the drained water back into the water tank, whereby the collected gas inside the water tank is pushed back into the overhanging plastic bags.
Gas composition measurements
To analyze the composition of the gases collected, a small sample of gas was withdrawn through a gas port and then sent out for analysis by a commercial laboratory utilizing gas chromatography.
(§1) Municipal sludge from the city of Lubbock, Wastewater Treatment Plant was digested in 12 batch digesters. Using twelve batch reactors allowed the collection of control reactors data (i.e., no formate in the reactors) in triplicate, titration studies of increasing formate concentration, and duplicates/triplicates of varying formate concentration. Experiments were conducted in the laboratories of Texas Tech University.
The reactors were setup on Mar. […] The substrate taken was 2 parts of 50 g/liter sucrose solution mixed with 1 part of digested municipal sludge which acts as the seed material for incorporation of microbes into the reactors. The experiments were started with the following protocol. [drawing 1]

[2] = tested on: anaerobic mixed culture (domestic sewage); experiment: Anaerobic digestion of domestic sewage, overall effect of formate salt concentration
Method: The various formate salts include, but are not limited to sodium formate (NaHCOO), potassium formate (KHCOO), ammonium formate (NH4COO), calcium formate (Ca(HCOO)2), and others either singly or in combination. These formate salts have been tested for concentrations ranging from 10 mg/L (˜10 ppm) to as high as […] (100,000 mg/L) based on the organic matter available for digestion.
Two tests were run in which sodium formate in concentrations ranging from a few parts per million (ppm) up to ten percent (10%) on a mass basis were added to samples taken from a publicly owned anaerobic digester. The samples were first cultured in laboratory sized batch reactors. The twelve batch reactors were then sampled, and studied for periods of up to fifty-five days. The process variables that were monitored included COD (Chemical Oxygen Demand), TS (Total Solids), TVS (Total Volatile Solids) and the pH of the culture. Time and the initial sodium formate concentration level were the independent variables. Finally measurements were also made of the bacterial counts at the beginning and at the end of the fifty five day period.
as §1

[3] = 100000 ppm, average of reactors

O=C[O-].[Na+] [sodium formate]
Average Composition CH4 ([1]; 1000 ppm, average of reactors): 0%
Average Composition CO2 ([1]; 1000 ppm, average of reactors): 18.3%
Average Composition N2 ([1]; 1000 ppm, average of reactors): 71.7%
Composition CH4 ([1]; 1000 ppm, single reactors): 0%
Composition CO2 ([1]; 1000 ppm, single reactors): 40% and 20% and 25%
Composition N2 ([1]; 1000 ppm, single reactors): 60% and 80% and 75%
Average Composition CH4 ([1]; 5000 ppm): 0.1%
Average Composition CO2 ([1]; 5000 ppm): 41%
Average Composition N2 ([1]; 5000 ppm): 59%
Composition CH4 ([1]; 5000 ppm, reactor 3): 0.1%
Composition CO2 ([1]; 5000 ppm, reactor 3): 41%
Composition N2 ([1]; 5000 ppm, reactor 3): 59%
Volume of CO2 generated ([1]; 5000 ppm, reactor 3): 725 mL
Volume of gas ([1]; 5000 ppm, reactor 3): 1750 mL
Average Composition CH4 ([1]; 10000 ppm, average of reactors): 0%
Average Composition CO2 ([1]; 10000 ppm, average of reactors): 41.7%
Average Composition N2 ([1]; 10000 ppm, average of reactors): 58.3%
Composition CH4 ([1]; 10000 ppm, single reactors): 0%
Composition CO2 ([1]; 10000 ppm, single reactors): 57% and 43% and 40%
Composition N2 ([1]; 10000 ppm, single reactors): 43% and 57% and 60%
Average Composition CH4 [1, 3]: 0%
Average Composition CO2 [1, 3]: 59%
Average Composition N2 [1, 3]: 41.5%
Composition CH4 ([1]; 100000 ppm, single reactors): 0%
Composition CO2 ([1]; 100000 ppm, single reactors): 70% and 47%
Composition N2 ([1]; 100000 ppm, single reactors): 30% and 53%
Volume of CO2 generated ([1]; 100000 ppm, single reactors): 910 mL and 1663 mL
effect on anaerobic digestion over the tested concentration range ([2]; 10 mg/L to 100,000 mg/L based on the organic matter available for digestion): beneficial at all concentration levels
concentration range of greatest effects ([2]; 10 mg/L to 100,000 mg/L tested): greatest effects being observed over the 100 ppm to the 2,000-mg/L range
cellular activity in the mixed culture ([2]; above the 5000 ppm concentration level): slightly, but still progressively more inhibited
effect of accidental addition of too much (titration data) ([2]; overdose): would not shut down the digester culture
effect on anaerobic digestion process ([2]; up to 5000 ppm, batch reactors, up to 55 days): facilitate the anaerobic digestion process at all concentration levels up to 5000 ppm
